This is an account of results in patent US9605027B2, “Polypeptides that bound to IL-23 receptor and inhibit binding of IL-23 and cell signaling thereof” (Medical Diagnostic Laboratories, LLC, priority 2011, dated 2017).

For experiment [1], the system named is IL-23 induced IL-17F production in human Th17 cells. As to the kind of experiment: IL-17F production induced by IL-23 in in vitro differentiated human Th17 cells. The experiment is classed as cell-based. The following applies: IL-23 1 ng/ml, peptide 0-10 μM, ELISA; read-out: IC50, inhibition of IL-17F production. As for the experimental part:
To that end, we designed and performed an in vitro assay using human differentiated Th17 cells. CD4+ naive T cells were negatively enriched using a human CD4+ naive T cells enrichment kit (StemCell Technologies, Catalog #19155). The purity of enriched CD4+ naive T cells was determined by FACS analysis. 1×10^6 cells/ml of CD4+ naive T cells were differentiated into Th17 cells under Th17 culture condition (CD3/28 beads, 10 ng/ml of IL-1β, 10 ng/ml of IL-6, 10 ng/ml of IL-23 and 1 ng/ml of TGF-β) for 5 days. All cytokines were purchased from Humanzyme. The CD3/28 beads were used according to the manufacturer's instructions (Miltenyi Biotec). Differentiation of Th17 cells was confirmed by the production of IL-17F using ELISA.
Experiments were performed where cyclic peptide no. 2HT AA (SEQ ID NO: 177) was added to the differentiated Th17 cells 30 minutes before the addition of IL-23 cytokine Th17 cells were stimulated for 2 days. Ionomycin (1 μg/ml)/PMA (50 ng/ml) (BD biosciences, San Jose, Calif.) were added to the stimulated cells 4 hours before the collection of media to measure the IL-17F production by ELISA (Catalog #88-7478, eBioscience, San Diego, Calif.). […]
CD4+ naive T cells were negatively enriched using human CD4+ naive T cells enrichment kit (StemCell Technologies, Catalog #19155). The purity of naive T cells was measured by FACS analysis. […]

A further experiment addresses T1, mouse IL-23R (Mus musculus, UniProt Q8K4B4).
T1 sequence (Q8K4B4 24-644): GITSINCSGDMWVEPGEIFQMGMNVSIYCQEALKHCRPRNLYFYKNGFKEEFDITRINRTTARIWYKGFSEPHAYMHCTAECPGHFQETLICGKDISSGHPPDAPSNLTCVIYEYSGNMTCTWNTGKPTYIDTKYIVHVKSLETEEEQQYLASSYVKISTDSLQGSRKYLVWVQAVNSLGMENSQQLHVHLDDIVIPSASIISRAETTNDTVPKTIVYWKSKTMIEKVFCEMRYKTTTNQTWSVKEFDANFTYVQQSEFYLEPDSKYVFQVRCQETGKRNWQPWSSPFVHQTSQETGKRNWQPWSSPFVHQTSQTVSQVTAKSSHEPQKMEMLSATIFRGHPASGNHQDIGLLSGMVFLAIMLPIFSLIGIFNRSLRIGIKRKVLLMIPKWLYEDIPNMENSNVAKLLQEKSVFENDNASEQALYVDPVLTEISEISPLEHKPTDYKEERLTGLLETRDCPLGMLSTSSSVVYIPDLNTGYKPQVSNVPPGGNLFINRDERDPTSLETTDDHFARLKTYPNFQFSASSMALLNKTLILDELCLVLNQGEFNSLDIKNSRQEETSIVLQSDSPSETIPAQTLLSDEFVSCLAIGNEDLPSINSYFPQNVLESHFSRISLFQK
The experiment in a line: Competitive mouse ELISA, mouse IL-23 binding to mouse IL-23R. The settings on record: mouse IL-23 / mouse IL-23R-Fc; read-out: IC50, Competitive ELISA in mouse system. An excerpt: In this study, we tested if the cyclic polypeptide no. 23.15, cyclic polypeptide no. 23.19 and the isolated polypeptide 23.15-Fc fusion protein could inhibit binding of mouse IL-23 to mouse IL-23R. Mouse IL-23 (p19 Gene Accession #: NM_031252; p40 Gene Accession #: NM_008352), the sequence of which is incorporated herein by reference. Mouse IL-23R (Gene Accession #: NM_144548), the sequence of which is incorporated herein by reference. To do so, we performed the Competitive ELISA.
FIG. 46 is a schematic depiction of the Competitive ELISA in mouse. Recombinant mouse IL-23R-Fc (2 μg/ml) was coated onto microtiter plates as a capture reagent. Mouse IL-23 and polypeptide or isolated peptide-Fc fusion protein were added to compete for binding to the immobilized mouse IL-23R-Fc. Mouse IL-23 that bound to mouse IL-23R-Fc was detected using biotinylated anti-p40 antibody (1:250). The bound anti-p40 antibody was detected using streptavidin-horseradish peroxidase (HRP) (1:500) and 100 μl/well of a tetramethylbenzidine (TMB) substrate was added to measure peroxidase activity. The color was measured at optical density (OD) 450nm. The color intensity was directly proportional to the amount of the bound mouse IL-23 protein.
The isolated polypeptide no. 23.15-Fc fusion protein, cyclic polypeptide no. 23.19 and polypeptide no. […] The IC50 values were calculated.

Peptide text beside a SMILES is read from it.

Regarding `CSCC[C@@H]1NC(=O)[C@H](CCCCN)NC(=O)[C@H](C)NC(=O)[C@H](C)NC(=O)[C@H](CS)NC(=O)[C@H](CC(N)=O)NC(=O)[C@H](CCCCN)NC(=O)[C@H](CC(C)C)NC(=O)[C@H](Cc2c[nH]c3ccccc23)NC(=O)[C@H](Cc2ccc(O)cc2)NC(=O)[C@H](CC(=O)O)NC(=O)[C@H](C(C)C)NC(=O)[C@H](Cc2c[nH]c3ccccc23)NC(=O)[C@H]([C@@H](C)O)NC1=O` [2HT AA] (cyclo(AAKMTWVDYWLKNC)), the IC50 in experiment [1] turned out to be 339 nM.
In the case of `CSCC[C@@H]1NC(=O)[C@H](C)NC(=O)[C@@H](N)CSSC[C@@H](C(=O)O)NC(=O)[C@H](CCCNC(=N)N)NC(=O)CNC(=O)[C@H](Cc2ccc(O)cc2)NC(=O)[C@H](CC(C)C)NC(=O)[C@H](Cc2c[nH]c3ccccc23)NC(=O)[C@H](Cc2ccc(O)cc2)NC(=O)[C@H](CC(=O)O)NC(=O)[C@H](CCC(N)=O)NC(=O)[C@H](Cc2c[nH]c3ccccc23)NC(=O)[C@H]([C@@H](C)O)NC1=O` [23.19], the IC50 on mouse IL-23R is 12.5 µM.

As usually defined, the IC50 is the concentration that inhibits the measured activity by half.
